# Source: ChEMBL document CHEMBL3885861, “Open TG-GATES”
# Species: Rattus norvegicus
# Test: Open TG-GATES - Regimen: Daily Repeat
# Format: toxicity, organism-based, Sprague-Dawley
# Parameters: regimen Daily Repeat, gender Male, age 6 weeks
# Settings: in vivo, po, 10 mg/kg, route gavage, dose level Low; for APTT / Bas / Eos / Fbg / Hb / Ht / Lym / MCH / MCHC / MCV / Mono / Neu / PT / Plat / RBC / Ret / WBC: tissue Blood; for KIDNEY_L / KIDNEY_R / KIDNEY_TOTAL: tissue Kidney; for LIVER: tissue Liver; for A/G / ALP / ALT / AST / BUN / CRE / Ca / Cl / DBIL / GLC / IP / K / LDH / Na / PL / RALB / TBIL / TC / TG / TP / gamma-GTP: tissue Plasma
smiles,measurement,setting,value
Nc1ccc(Cc2ccc(N)cc2)cc1,TERMINAL_BW,"72 h, time 3 day",237.7 g
same,APTT,"72 h, time 3 day",13.9 s
same,Bas,"72 h, time 3 day",0.2%
same,Eos,"72 h, time 3 day",0.8%
same,Fbg,"72 h, time 3 day",280.2 mg/dL
same,Hb,"72 h, time 3 day",13.3 g/dL
same,Ht,"72 h, time 3 day",38.9%
same,Lym,"72 h, time 3 day",75%
same,MCH,"72 h, time 3 day",21.1 pg
same,MCHC,"72 h, time 3 day",34.2%
same,MCV,"72 h, time 3 day",61.5 fL
same,Mono,"72 h, time 3 day",2.4%
same,Neu,"72 h, time 3 day",20.8%
same,PT,"72 h, time 3 day",11.9 s
same,Plat,"72 h, time 3 day",149.6 x10_4/uL
same,RBC,"72 h, time 3 day",632.8 x10_4/ul
same,Ret,"72 h, time 3 day",5.9%
same,WBC,"72 h, time 3 day",114.1 x10_2/uL
same,KIDNEY_L,"72 h, time 3 day",1 g
same,KIDNEY_R,"72 h, time 3 day",1 g
same,KIDNEY_TOTAL,"72 h, time 3 day",1.9 g
same,LIVER,"72 h, time 3 day",11.4 g
same,A/G,"72 h, time 3 day",0.8
same,ALP,"72 h, time 3 day",1752.4 IU/L
same,ALT,"72 h, time 3 day",41 IU/L
same,AST,"72 h, time 3 day",68.6 IU/L
same,BUN,"72 h, time 3 day",16.2 mg/dL
same,CRE,"72 h, time 3 day",0.2 mg/dL
same,Ca,"72 h, time 3 day",10.9 mg/dL
same,Cl,"72 h, time 3 day",106.6 meq/L
same,DBIL,"72 h, time 3 day",0.018 mg/dL
same,GLC,"72 h, time 3 day",181.4 mg/dL
same,IP,"72 h, time 3 day",7.7 mg/dL
same,K,"72 h, time 3 day",4.1 meq/L
same,LDH,"72 h, time 3 day",63 IU/L
same,Na,"72 h, time 3 day",143.6 meq/L
same,PL,"72 h, time 3 day",146.2 mg/dL
same,RALB,"72 h, time 3 day",2.7 g/dL
same,TBIL,"72 h, time 3 day",0.032 mg/dL
same,TC,"72 h, time 3 day",78.4 mg/dL
same,TG,"72 h, time 3 day",114.4 mg/dL
same,TP,"72 h, time 3 day",6 g/dL
same,gamma-GTP,"72 h, time 3 day",1 IU/L
same,TERMINAL_BW,"[…], time 7 day",279.3 g
same,TERMINAL_BW,"[…], time 14 day",335.7 g
same,TERMINAL_BW,"[…], time 28 day",440.9 g
same,APTT,"[…], time 7 day",13.6 s
same,Bas,"[…], time 7 day",0.2%
same,Eos,"[…], time 7 day",0.4%
same,Fbg,"[…], time 7 day",279.2 mg/dL
same,Hb,"[…], time 7 day",13.4 g/dL
same,Ht,"[…], time 7 day",39.2%
same,Lym,"[…], time 7 day",69.8%
same,MCH,"[…], time 7 day",20.6 pg
same,MCHC,"[…], time 7 day",34.1%
same,MCV,"[…], time 7 day",60.6 fL
same,Mono,"[…], time 7 day",2.8%
same,Neu,"[…], time 7 day",26.2%
same,PT,"[…], time 7 day",11.3 s
same,Plat,"[…], time 7 day",144.1 x10_4/uL
same,RBC,"[…], time 7 day",648 x10_4/ul
same,Ret,"[…], time 7 day",5.5%
same,WBC,"[…], time 7 day",107.7 x10_2/uL
same,APTT,"[…], time 14 day",15.6 s
same,Bas,"[…], time 14 day",0%
same,Eos,"[…], time 14 day",0.8%
same,Fbg,"[…], time 14 day",283.8 mg/dL
same,Hb,"[…], time 14 day",14.1 g/dL
same,Ht,"[…], time 14 day",40.9%
same,Lym,"[…], time 14 day",78%
same,MCH,"[…], time 14 day",20.6 pg
same,MCHC,"[…], time 14 day",34.6%
same,MCV,"[…], time 14 day",59.5 fL
same,Mono,"[…], time 14 day",1.8%
same,Neu,"[…], time 14 day",19%
same,PT,"[…], time 14 day",11.5 s
same,Plat,"[…], time 14 day",146.2 x10_4/uL
same,RBC,"[…], time 14 day",687 x10_4/ul
same,Ret,"[…], time 14 day",4.3%
same,WBC,"[…], time 14 day",125.5 x10_2/uL
same,APTT,"[…], time 28 day",16.1 s
same,Bas,"[…], time 28 day",0.2%
same,Eos,"[…], time 28 day",1%
same,Fbg,"[…], time 28 day",270.4 mg/dL
same,Hb,"[…], time 28 day",14.7 g/dL
same,Ht,"[…], time 28 day",41.8%
same,Lym,"[…], time 28 day",77.6%
same,MCH,"[…], time 28 day",19.6 pg
same,MCHC,"[…], time 28 day",35.1%
same,MCV,"[…], time 28 day",55.7 fL
same,Mono,"[…], time 28 day",1.4%
same,Neu,"[…], time 28 day",19.2%
same,PT,"[…], time 28 day",11.9 s
same,Plat,"[…], time 28 day",114.6 x10_4/uL
same,RBC,"[…], time 28 day",750.8 x10_4/ul
same,Ret,"[…], time 28 day",2.7%
same,WBC,"[…], time 28 day",114 x10_2/uL
same,KIDNEY_L,"[…], time 7 day",1.1 g
same,KIDNEY_R,"[…], time 7 day",1.1 g
same,KIDNEY_TOTAL,"[…], time 7 day",2.2 g
same,KIDNEY_L,"[…], time 14 day",1.2 g
same,KIDNEY_R,"[…], time 14 day",1.2 g
same,KIDNEY_TOTAL,"[…], time 14 day",2.3 g
same,KIDNEY_L,"[…], time 28 day",1.4 g
same,KIDNEY_R,"[…], time 28 day",1.4 g
same,KIDNEY_TOTAL,"[…], time 28 day",2.8 g
same,LIVER,"[…], time 7 day",13 g
same,LIVER,"[…], time 14 day",15.9 g
same,LIVER,"[…], time 28 day",17.9 g
same,A/G,"[…], time 7 day",0.8
same,ALP,"[…], time 7 day",1642 IU/L
same,ALT,"[…], time 7 day",40.8 IU/L
same,AST,"[…], time 7 day",65 IU/L
same,BUN,"[…], time 7 day",16.8 mg/dL
same,CRE,"[…], time 7 day",0.2 mg/dL
same,Ca,"[…], time 7 day",11.4 mg/dL
same,Cl,"[…], time 7 day",104.6 meq/L
same,DBIL,"[…], time 7 day",0.026 mg/dL
same,GLC,"[…], time 7 day",182 mg/dL
same,IP,"[…], time 7 day",7.2 mg/dL
same,K,"[…], time 7 day",4.2 meq/L
same,LDH,"[…], time 7 day",60.6 IU/L
same,Na,"[…], time 7 day",143.6 meq/L
same,PL,"[…], time 7 day",143.8 mg/dL
same,RALB,"[…], time 7 day",2.7 g/dL
same,TBIL,"[…], time 7 day",0.07 mg/dL
same,TC,"[…], time 7 day",75.4 mg/dL
same,TG,"[…], time 7 day",105.6 mg/dL
same,TP,"[…], time 7 day",6 g/dL
same,gamma-GTP,"[…], time 7 day",1.4 IU/L
same,A/G,"[…], time 14 day",0.8
same,ALP,"[…], time 14 day",1500.2 IU/L
same,ALT,"[…], time 14 day",38.8 IU/L
same,AST,"[…], time 14 day",64.6 IU/L
same,BUN,"[…], time 14 day",17 mg/dL
same,CRE,"[…], time 14 day",0.2 mg/dL
same,Ca,"[…], time 14 day",11.1 mg/dL
same,Cl,"[…], time 14 day",104.8 meq/L
same,DBIL,"[…], time 14 day",0.02 mg/dL
same,GLC,"[…], time 14 day",174.4 mg/dL
same,IP,"[…], time 14 day",7.1 mg/dL
same,K,"[…], time 14 day",3.8 meq/L
same,LDH,"[…], time 14 day",72.4 IU/L
same,Na,"[…], time 14 day",143.2 meq/L
same,PL,"[…], time 14 day",146.4 mg/dL
same,RALB,"[…], time 14 day",2.7 g/dL
same,TBIL,"[…], time 14 day",0.05 mg/dL
same,TC,"[…], time 14 day",70.4 mg/dL
same,TG,"[…], time 14 day",145 mg/dL
same,TP,"[…], time 14 day",6.2 g/dL
same,gamma-GTP,"[…], time 14 day",1 IU/L
same,A/G,"[…], time 28 day",0.8
same,ALP,"[…], time 28 day",1150 IU/L
same,ALT,"[…], time 28 day",34.2 IU/L
same,AST,"[…], time 28 day",57.6 IU/L
same,BUN,"[…], time 28 day",16 mg/dL
same,CRE,"[…], time 28 day",0.2 mg/dL
same,Ca,"[…], time 28 day",10.9 mg/dL
same,Cl,"[…], time 28 day",105.4 meq/L
same,DBIL,"[…], time 28 day",0.02 mg/dL
same,GLC,"[…], time 28 day",177.6 mg/dL
same,IP,"[…], time 28 day",6.5 mg/dL
same,K,"[…], time 28 day",4 meq/L
same,LDH,"[…], time 28 day",64 IU/L
same,Na,"[…], time 28 day",144.4 meq/L
same,PL,"[…], time 28 day",133 mg/dL
same,RALB,"[…], time 28 day",2.7 g/dL
same,TBIL,"[…], time 28 day",0.056 mg/dL
same,TC,"[…], time 28 day",67 mg/dL
same,TG,"[…], time 28 day",112.4 mg/dL
same,TP,"[…], time 28 day",6.4 g/dL
same,gamma-GTP,"[…], time 28 day",1 IU/L
